Measured values taken from the supplement of paper PMC10307832.

What was measured:
Experiment in all cases: relative viability (nuclei count vs DMSO), 5 days (fraction); higher = more cells survive
[1] = compound: C#Cc1cccc(Nc2ncnc3cc(OCCOC)c(OCCOC)cc23)c1 [Erlotinib] + Cc1nc(NC(=O)N2CCC[C@H]2C(N)=O)sc1-c1ccnc(C(C)(C)C(F)(F)F)c1 [Alpelisib] (partner 2 µM)
How it was run: (§1)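 Relative viability is defined as nuclei in treated wells over nuclei in vehicle wells. Duplicate plates were run and medians reported. Lung cancer cell lines in 1536-well plates were dosed by pin tool one day after seeding, with one drug or with a fixed anchor-drug dose plus five library-drug doses (not always all listed) in √10 steps, and nuclei were counted after 5 days.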

[2] = compound: O=C(Nc1c[nH]nc1-c1nc2ccc(CN3CCOCC3)cc2[nH]1)NC1CC1 [AT9283] + C[C@]1(O)C[C@@H](c2nc(-c3ccc4ccc(-c5ccccc5)nc4c3)c3c(N)nccn32)C1 [Linsitinib] (partner 1 µM)
How it was run: as §1

[3] = compound: O=C(Nc1c[nH]nc1-c1nc2ccc(CN3CCOCC3)cc2[nH]1)NC1CC1 [AT9283] + CS(=O)(=O)N1CCN(Cc2cc3nc(-c4cccc5[nH]ncc45)nc(N4CCOCC4)c3s2)CC1 [Pictilisib] (partner 1 µM)
How it was run: as §1

[4] = compound: C#Cc1cccc(Nc2ncnc3cc(OCCOC)c(OCCOC)cc23)c1 [Erlotinib] + CS(=O)(=O)N1CCN(Cc2cc3nc(-c4cccc5[nH]ncc45)nc(N4CCOCC4)c3s2)CC1 [Pictilisib] (partner 1 µM)
How it was run: as §1

[5] = compound: C#Cc1cccc(Nc2ncnc3cc(OCCOC)c(OCCOC)cc23)c1 [Erlotinib] + N=C(N)NC(=N)NCCc1ccccc1 [Phenformin] (partner 250 µM)
How it was run: as §1

**Q.** What does the source list for NCI-H441?
**A.** relative viability ([1]; first compound 0.02 µM): 0.688; relative viability ([1]; first compound 0.2 µM): 0.655; relative viability ([1]; first compound 0.6325 µM): 0.743; relative viability ([1]; first compound 2 µM): 0.466; relative viability ([2]; first compound 0.003 µM): 0.535; relative viability ([2]; first compound 0.03 µM): 0.474; relative viability ([2]; first compound 0.09487 µM): 0.142; relative viability ([2]; first compound 0.3 µM): 0.165; relative viability ([3]; first compound 0.003 µM): 0.359; relative viability ([3]; first compound 0.03 µM): 0.469; relative viability ([3]; first compound 0.09487 µM): 0.138; relative viability ([3]; first compound 0.3 µM): 0.186; relative viability ([4]; first compound 0.02 µM): 0.448; relative viability ([4]; first compound 0.2 µM): 0.495; relative viability ([4]; first compound 0.6325 µM): 0.393; relative viability ([4]; first compound 2 µM): 0.392; relative viability ([5]; first compound 0.02 µM): 0.883; relative viability ([5]; first compound 0.2 µM): 0.863; relative viability ([5]; first compound 0.6325 µM): 0.892
